According to patent publication US20030166601A1, “Novel colloid synthetic vectors for gene therapy” (priority 1999, published 2003):

Tests used:
BL-6 cells = type: cell-based; conditions: polylysine core complexes; FIG. 8
HUVEC cells = experiment: Transfection of HUVEC cells with K14RGD/Lipofectin complexes, luciferase; type: cell-based; conditions: added to lipofectin core complexes; FIG. 25
Procedure: 20000 HUVEC cells were seeded to each well of a 96 well plate and cultured for 12 hr before transfection. 0 or 2 ug of K14RGD peptide was mixed with indicated amount of Lipofectin from 0.1 ul to 4 ul in 50 ul of serum free medium for 15 min. The mixture was added to 50 ul serum free medium containing 0.5 ug pCIluc2 DNA. The poly-lipoplex was incubated for 30 min before added to the cells. The transfection solution was removed after 3 hr and serum-containing medium was added to the cells.
At 24 hr, luciferase activity was measured with Promega luciferase assay kit according to the recommended procedure.

mouse = experiment: In vivo transfection with cationic lipid complexes containing fusogenic or steric surfactants; conditions: DOTAP:Chol core complexes; FIG. 7
Procedure: All lipids of a formulation including surfactants were dissolved in an organic solvent such as cyclohexane and mixed together at the desired ratio and then lyophilized to dryness. For example, 45 mg DOTAP and 25 mg cholesterol, or 10 mg GC-030 and 4.74 mg cholesterol were used for DOTAP:Chol and GC-030:Chol, respectively. Double distilled water was added to the lipid cake to give a final concentration of 10 mg/ml of cationic lipid (cholesterol is a neutral lipid that is not counted for calculation of lipid dispersion concentration or later for charge ratio with DNA) and allowed to hydrate at 70 C for 1 hr. The lipid dispersion was extruded through 100 nm pore carbonate membranes (Avanti Polar Lipids Inc) or vortexed for 1 min at room temperature.
Forty microgram of pCILuc was dissolved in 100 μl of 10% glucose and mixed by hand with different amount of lipids dispersion dissolved in 100 μl distilled H2O. The final concentration of Glucose is 5%. The mixing was performed by added the DNA solution to the lipid solution. The charge ratio of lipids to DNA in this mixture was indicated in the text. 200 μl of DNA/lipid complex solutions was injected into mouse tail vein. Each group had 3-5 mice. Five hours later, mice were sacrificed. […] Luciferase activity was determined by using luciferase assay system kit from Promega. […]

Compound: GLF GAI EGF IEN GWE GWI DGW YGC KCK KKK KKK KKK KKK K [Example K14-Fuso]
- expression, effect of fusogenic peptide (BL-6 cells): increased expression

Compound: KKK KKK KKK KKK KKS CRG DC [Example K14RGD]
- expression, effect of peptide ligand (HUVEC cells): increased expression

Compound: CCCCCCCC/C=C\CCCCCCCC(=O)OCCOCC(OCCO)C1OCC(OCCO)C1OCCO (stereo not drawn) [Tween 80]
- gene transfer in vivo, effect of additive (mouse): improved
